{"source": "ChEMBL document CHEMBL3124838", "about": "“Discovery of 6-aryl-azabenzimidazoles that inhibit the TBK1/IKK-ε kinases” (Bioorg Med Chem Lett, 2014)", "data": [{"molecular_target": "Tyrosine-protein kinase Yes (Homo sapiens) (UniProt P07947)", "sequence (P07947 2-543 limits assumed)": "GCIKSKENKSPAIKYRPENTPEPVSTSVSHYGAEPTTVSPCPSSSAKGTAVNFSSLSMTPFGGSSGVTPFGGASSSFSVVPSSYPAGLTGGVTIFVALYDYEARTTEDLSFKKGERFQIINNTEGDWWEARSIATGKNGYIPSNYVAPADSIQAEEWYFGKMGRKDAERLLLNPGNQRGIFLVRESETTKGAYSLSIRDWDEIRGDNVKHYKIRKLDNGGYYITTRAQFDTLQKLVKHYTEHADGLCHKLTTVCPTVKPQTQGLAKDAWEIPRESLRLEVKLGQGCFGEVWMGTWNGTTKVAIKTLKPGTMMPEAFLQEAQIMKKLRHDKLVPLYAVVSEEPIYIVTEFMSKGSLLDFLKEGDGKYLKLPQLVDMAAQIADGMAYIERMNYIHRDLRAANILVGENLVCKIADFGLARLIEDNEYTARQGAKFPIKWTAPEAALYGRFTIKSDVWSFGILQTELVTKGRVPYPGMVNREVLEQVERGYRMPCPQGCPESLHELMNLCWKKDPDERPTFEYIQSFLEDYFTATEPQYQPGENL", "experiment": "Inhibition of human YES assessed as residual activity at 1 uM relative to control", "units": {"Activity": "%"}, "values": [{"smiles": "COc1ccc(-c2nc3cc(-c4csc(C(=O)NCC(C)(C)C)c4)cnc3[nH]2)cc1", "Activity": 15}, {"smiles": "COc1ccc(-c2nc3cc(-c4csc(C(=O)NCC(C)C)c4)cnc3[nH]2)cc1", "Activity": 6}, {"smiles": "COc1ccc(-c2nc3cc(-c4csc(C(=O)NCCC(C)C)c4)cnc3[nH]2)cc1", "Activity": 5}]}, {"molecular_target": "T1, Tyrosine-protein kinase receptor TYRO3 (Homo sapiens) (UniProt Q06418)", "T1 sequence (whole entry)": "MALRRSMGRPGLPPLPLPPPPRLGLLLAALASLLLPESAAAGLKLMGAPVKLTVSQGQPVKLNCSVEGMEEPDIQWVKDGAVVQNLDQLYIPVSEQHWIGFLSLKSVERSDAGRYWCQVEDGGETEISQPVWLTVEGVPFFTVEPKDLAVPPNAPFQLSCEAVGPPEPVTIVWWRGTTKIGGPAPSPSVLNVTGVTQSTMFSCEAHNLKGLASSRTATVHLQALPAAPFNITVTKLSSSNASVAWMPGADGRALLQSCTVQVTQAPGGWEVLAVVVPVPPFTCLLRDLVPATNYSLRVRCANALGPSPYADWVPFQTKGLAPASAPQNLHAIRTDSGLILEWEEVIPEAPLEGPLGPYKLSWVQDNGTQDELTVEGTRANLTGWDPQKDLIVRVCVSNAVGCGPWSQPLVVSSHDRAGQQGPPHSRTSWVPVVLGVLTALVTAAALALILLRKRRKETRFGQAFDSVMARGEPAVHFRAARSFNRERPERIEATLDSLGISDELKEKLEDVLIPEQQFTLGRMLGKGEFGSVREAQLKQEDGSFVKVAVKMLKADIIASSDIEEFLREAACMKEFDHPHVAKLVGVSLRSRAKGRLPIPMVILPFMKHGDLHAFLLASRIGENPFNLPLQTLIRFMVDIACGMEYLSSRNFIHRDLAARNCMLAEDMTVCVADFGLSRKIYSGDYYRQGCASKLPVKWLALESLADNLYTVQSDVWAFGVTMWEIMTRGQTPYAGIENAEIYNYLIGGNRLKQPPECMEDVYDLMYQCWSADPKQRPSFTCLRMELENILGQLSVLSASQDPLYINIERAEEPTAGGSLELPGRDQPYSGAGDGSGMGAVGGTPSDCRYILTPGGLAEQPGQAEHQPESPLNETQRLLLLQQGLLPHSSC", "experiment": "Inhibition of human RSE assessed as residual activity at 1 uM relative to control", "units": {"Activity": "%"}, "values": [{"smiles": "COc1ccc(-c2nc3cc(-c4csc(C(=O)NCC(C)(C)C)c4)cnc3[nH]2)cc1", "Activity": 104}, {"smiles": "COc1ccc(-c2nc3cc(-c4csc(C(=O)NCC(C)C)c4)cnc3[nH]2)cc1", "Activity": 112}, {"smiles": "COc1ccc(-c2nc3cc(-c4csc(C(=O)NCCC(C)C)c4)cnc3[nH]2)cc1", "Activity": 104}]}, {"molecular_target": "Fibroblast growth factor receptor 4 (Homo sapiens) (UniProt P22455)", "sequence (P22455 22-802 limits assumed)": "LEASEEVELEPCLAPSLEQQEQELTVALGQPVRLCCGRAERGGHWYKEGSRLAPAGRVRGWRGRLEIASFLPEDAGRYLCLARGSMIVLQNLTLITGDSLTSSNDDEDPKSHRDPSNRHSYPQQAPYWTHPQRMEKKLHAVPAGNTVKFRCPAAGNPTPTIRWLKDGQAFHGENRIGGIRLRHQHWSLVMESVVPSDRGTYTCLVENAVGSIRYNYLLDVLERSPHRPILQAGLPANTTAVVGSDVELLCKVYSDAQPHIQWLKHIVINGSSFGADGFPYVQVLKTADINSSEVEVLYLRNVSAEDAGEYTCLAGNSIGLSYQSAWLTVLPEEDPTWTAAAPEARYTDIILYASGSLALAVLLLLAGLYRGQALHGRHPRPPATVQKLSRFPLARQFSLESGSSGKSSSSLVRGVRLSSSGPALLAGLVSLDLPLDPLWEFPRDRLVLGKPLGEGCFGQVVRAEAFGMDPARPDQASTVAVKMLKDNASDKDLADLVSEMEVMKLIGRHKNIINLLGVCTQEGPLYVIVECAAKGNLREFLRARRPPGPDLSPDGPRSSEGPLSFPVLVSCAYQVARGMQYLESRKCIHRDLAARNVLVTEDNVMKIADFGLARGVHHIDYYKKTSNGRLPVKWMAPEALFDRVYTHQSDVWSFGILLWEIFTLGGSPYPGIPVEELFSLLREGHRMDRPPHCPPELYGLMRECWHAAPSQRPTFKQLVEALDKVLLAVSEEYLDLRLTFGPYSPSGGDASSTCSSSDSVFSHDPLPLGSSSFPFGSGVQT", "experiment": "Inhibition of human FGFR4 assessed as residual activity at 1 uM relative to control", "units": {"Activity": "%"}, "values": [{"smiles": "COc1ccc(-c2nc3cc(-c4csc(C(=O)NCC(C)(C)C)c4)cnc3[nH]2)cc1", "Activity": 109}, {"smiles": "COc1ccc(-c2nc3cc(-c4csc(C(=O)NCC(C)C)c4)cnc3[nH]2)cc1", "Activity": 109}, {"smiles": "COc1ccc(-c2nc3cc(-c4csc(C(=O)NCCC(C)C)c4)cnc3[nH]2)cc1", "Activity": 102}]}, {"molecular_target": "Tyrosine-protein kinase Lck (Homo sapiens) (UniProt P06239)", "sequence (P06239 2-509 limits assumed)": "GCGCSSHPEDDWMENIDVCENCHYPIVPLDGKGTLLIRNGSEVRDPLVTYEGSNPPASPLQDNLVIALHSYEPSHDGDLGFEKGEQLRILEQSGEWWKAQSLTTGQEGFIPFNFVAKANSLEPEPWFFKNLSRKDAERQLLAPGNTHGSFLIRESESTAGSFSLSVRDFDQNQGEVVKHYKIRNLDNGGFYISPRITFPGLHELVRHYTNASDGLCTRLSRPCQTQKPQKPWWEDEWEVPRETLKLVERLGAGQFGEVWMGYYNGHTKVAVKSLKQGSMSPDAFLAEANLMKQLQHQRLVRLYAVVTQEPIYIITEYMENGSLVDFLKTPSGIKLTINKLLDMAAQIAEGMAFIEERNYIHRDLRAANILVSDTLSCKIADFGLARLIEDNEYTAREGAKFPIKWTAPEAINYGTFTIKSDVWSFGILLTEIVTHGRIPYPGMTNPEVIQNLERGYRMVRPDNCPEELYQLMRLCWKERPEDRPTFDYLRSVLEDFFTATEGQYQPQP", "experiment": "Inhibition of human activated LCK assessed as residual activity at 1 uM relative to control", "units": {"Activity": "%"}, "values": [{"smiles": "COc1ccc(-c2nc3cc(-c4csc(C(=O)NCC(C)(C)C)c4)cnc3[nH]2)cc1", "Activity": 71}, {"smiles": "COc1ccc(-c2nc3cc(-c4csc(C(=O)NCC(C)C)c4)cnc3[nH]2)cc1", "Activity": 56}, {"smiles": "COc1ccc(-c2nc3cc(-c4csc(C(=O)NCCC(C)C)c4)cnc3[nH]2)cc1", "Activity": 47}]}, {"molecular_target": "RAC-beta serine/threonine-protein kinase (Homo sapiens) (UniProt P31751)", "sequence (P31751 whole entry)": "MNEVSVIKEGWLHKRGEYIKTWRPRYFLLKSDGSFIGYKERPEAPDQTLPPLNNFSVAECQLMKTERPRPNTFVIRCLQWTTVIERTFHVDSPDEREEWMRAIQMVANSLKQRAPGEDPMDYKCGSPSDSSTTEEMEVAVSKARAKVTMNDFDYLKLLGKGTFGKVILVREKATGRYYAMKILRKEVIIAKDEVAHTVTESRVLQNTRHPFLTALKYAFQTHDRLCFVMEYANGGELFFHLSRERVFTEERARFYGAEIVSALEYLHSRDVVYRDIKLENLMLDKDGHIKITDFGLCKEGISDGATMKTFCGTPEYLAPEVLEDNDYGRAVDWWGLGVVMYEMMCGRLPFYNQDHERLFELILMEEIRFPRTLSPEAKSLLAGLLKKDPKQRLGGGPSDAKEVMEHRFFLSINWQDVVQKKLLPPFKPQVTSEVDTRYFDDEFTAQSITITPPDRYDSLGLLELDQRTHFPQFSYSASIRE", "experiment": "Inhibition of human PKBbeta assessed as residual activity at 1 uM relative to control", "units": {"Activity": "%"}, "values": [{"smiles": "COc1ccc(-c2nc3cc(-c4csc(C(=O)NCC(C)(C)C)c4)cnc3[nH]2)cc1", "Activity": 90}, {"smiles": "COc1ccc(-c2nc3cc(-c4csc(C(=O)NCC(C)C)c4)cnc3[nH]2)cc1", "Activity": 98}, {"smiles": "COc1ccc(-c2nc3cc(-c4csc(C(=O)NCCC(C)C)c4)cnc3[nH]2)cc1", "Activity": 93}]}, {"molecular_target": "CDK6/cyclin D3 (Homo sapiens) (UniProt P30281+Q00534)", "experiment": "Inhibition of human CDK6/cyclin D3 assessed as residual activity at 1 uM relative to control", "type": "protein-complex assay", "units": {"Activity": "%"}, "values": [{"smiles": "COc1ccc(-c2nc3cc(-c4csc(C(=O)NCC(C)(C)C)c4)cnc3[nH]2)cc1", "Activity": 105}, {"smiles": "COc1ccc(-c2nc3cc(-c4csc(C(=O)NCC(C)C)c4)cnc3[nH]2)cc1", "Activity": 103}, {"smiles": "COc1ccc(-c2nc3cc(-c4csc(C(=O)NCCC(C)C)c4)cnc3[nH]2)cc1", "Activity": 102}]}, {"molecular_target": "T2, Serine/threonine-protein kinase TBK1 (Homo sapiens, UniProt Q9UHD2)", "T2 sequence (Q9UHD2 whole entry)": "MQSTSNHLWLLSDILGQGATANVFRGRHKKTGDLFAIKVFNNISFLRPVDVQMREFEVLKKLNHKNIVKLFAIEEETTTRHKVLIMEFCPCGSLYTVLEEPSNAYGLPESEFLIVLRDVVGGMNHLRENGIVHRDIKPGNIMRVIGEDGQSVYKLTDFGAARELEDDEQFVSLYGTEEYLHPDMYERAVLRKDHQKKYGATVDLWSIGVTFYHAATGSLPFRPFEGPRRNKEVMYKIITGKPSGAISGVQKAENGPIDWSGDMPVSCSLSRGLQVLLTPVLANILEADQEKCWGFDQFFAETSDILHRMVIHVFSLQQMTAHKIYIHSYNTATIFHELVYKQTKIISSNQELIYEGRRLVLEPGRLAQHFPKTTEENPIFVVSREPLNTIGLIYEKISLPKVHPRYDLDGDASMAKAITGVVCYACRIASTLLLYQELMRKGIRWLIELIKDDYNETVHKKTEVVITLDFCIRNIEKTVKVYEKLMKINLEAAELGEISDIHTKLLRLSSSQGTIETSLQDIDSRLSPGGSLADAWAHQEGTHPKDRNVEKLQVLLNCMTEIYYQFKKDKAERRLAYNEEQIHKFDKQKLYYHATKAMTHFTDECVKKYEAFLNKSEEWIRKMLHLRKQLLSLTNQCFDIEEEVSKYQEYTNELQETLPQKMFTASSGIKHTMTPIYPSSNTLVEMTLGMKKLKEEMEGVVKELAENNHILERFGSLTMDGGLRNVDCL", "experiment": "Inhibition of TBK1 in HEK293 cells after 4.5 hrs by ISRE-luciferase reporter gene assay in presence of poly I:C", "type": "cell-based", "units": {"IC50": "µM"}, "values": [{"smiles": "COc1ccc(-c2nc3cc(-c4csc(C(=O)NCC(C)(C)C)c4)cnc3[nH]2)cc1", "IC50": 0.03}, {"smiles": "COc1ccc(-c2nc3cc(-c4csc(C(=O)NCC(C)C)c4)cnc3[nH]2)cc1", "IC50": 0.037}, {"smiles": "COc1ccc(-c2nc3cc(-c4csc(C(=O)NCCC(C)C)c4)cnc3[nH]2)cc1", "IC50": 0.078}]}, {"molecular_target": "Glycogen synthase kinase-3 alpha (Homo sapiens) (UniProt P49840)", "sequence (P49840 2-483 limits assumed)": "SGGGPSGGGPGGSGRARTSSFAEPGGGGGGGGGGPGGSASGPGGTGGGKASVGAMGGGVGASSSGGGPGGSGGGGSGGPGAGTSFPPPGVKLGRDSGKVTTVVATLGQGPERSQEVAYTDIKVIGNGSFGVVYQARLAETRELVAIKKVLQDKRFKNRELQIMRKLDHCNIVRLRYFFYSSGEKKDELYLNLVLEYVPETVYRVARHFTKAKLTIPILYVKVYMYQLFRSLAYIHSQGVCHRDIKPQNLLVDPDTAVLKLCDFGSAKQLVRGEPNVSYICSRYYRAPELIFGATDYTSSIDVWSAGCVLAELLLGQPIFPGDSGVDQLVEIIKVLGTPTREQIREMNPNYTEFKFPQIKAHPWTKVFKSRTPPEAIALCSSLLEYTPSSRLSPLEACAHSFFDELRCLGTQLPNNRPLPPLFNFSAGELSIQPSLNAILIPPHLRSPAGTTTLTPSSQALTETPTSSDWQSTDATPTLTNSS", "experiment": "Inhibition of human GSK3alpha assessed as residual activity at 1 uM relative to control", "units": {"Activity": "%"}, "values": [{"smiles": "COc1ccc(-c2nc3cc(-c4csc(C(=O)NCC(C)(C)C)c4)cnc3[nH]2)cc1", "Activity": 95}, {"smiles": "COc1ccc(-c2nc3cc(-c4csc(C(=O)NCC(C)C)c4)cnc3[nH]2)cc1", "Activity": 92}, {"smiles": "COc1ccc(-c2nc3cc(-c4csc(C(=O)NCCC(C)C)c4)cnc3[nH]2)cc1", "Activity": 102}]}, {"molecular_target": "T3, Serine/threonine-protein kinase STK11 (Homo sapiens) (UniProt Q15831)", "T3 sequence (whole entry)": "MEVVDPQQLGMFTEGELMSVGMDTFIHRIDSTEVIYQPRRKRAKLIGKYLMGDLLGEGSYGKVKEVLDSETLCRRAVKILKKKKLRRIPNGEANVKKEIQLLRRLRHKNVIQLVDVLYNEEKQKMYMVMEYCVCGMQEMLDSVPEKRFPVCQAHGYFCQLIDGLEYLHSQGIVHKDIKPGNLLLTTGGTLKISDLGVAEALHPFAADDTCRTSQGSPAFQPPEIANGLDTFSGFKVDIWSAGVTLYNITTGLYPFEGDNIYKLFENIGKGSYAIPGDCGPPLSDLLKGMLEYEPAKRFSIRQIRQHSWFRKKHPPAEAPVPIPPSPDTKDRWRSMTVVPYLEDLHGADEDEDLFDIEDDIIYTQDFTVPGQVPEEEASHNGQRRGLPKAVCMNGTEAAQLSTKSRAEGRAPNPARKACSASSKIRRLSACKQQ", "experiment": "Inhibition of human LKB1 assessed as residual activity at 1 uM relative to control", "units": {"Activity": "%"}, "values": [{"smiles": "COc1ccc(-c2nc3cc(-c4csc(C(=O)NCC(C)(C)C)c4)cnc3[nH]2)cc1", "Activity": 81}, {"smiles": "COc1ccc(-c2nc3cc(-c4csc(C(=O)NCC(C)C)c4)cnc3[nH]2)cc1", "Activity": 92}, {"smiles": "COc1ccc(-c2nc3cc(-c4csc(C(=O)NCCC(C)C)c4)cnc3[nH]2)cc1", "Activity": 97}]}, {"molecular_target": "Ribosomal protein S6 kinase beta-1 (Homo sapiens) (UniProt P23443)", "sequence (P23443 whole entry, looked up)": "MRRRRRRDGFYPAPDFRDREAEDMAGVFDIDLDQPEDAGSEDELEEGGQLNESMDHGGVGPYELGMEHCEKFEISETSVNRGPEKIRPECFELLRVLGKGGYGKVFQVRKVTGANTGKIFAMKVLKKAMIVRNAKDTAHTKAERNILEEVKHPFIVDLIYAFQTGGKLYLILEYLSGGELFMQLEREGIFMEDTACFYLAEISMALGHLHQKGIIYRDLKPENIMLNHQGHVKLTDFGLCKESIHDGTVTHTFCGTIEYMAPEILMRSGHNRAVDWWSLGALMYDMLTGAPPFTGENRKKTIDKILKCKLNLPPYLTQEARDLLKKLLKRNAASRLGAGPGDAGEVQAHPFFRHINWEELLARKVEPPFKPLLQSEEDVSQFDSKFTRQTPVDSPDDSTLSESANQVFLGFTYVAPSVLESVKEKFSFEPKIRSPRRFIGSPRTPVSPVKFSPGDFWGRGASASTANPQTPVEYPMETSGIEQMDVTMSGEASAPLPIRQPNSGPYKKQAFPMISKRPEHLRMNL", "experiment": "Inhibition of human p70S6K assessed as residual activity at 1 uM relative to control", "units": {"Activity": "%"}, "values": [{"smiles": "COc1ccc(-c2nc3cc(-c4csc(C(=O)NCC(C)(C)C)c4)cnc3[nH]2)cc1", "Activity": 87}, {"smiles": "COc1ccc(-c2nc3cc(-c4csc(C(=O)NCC(C)C)c4)cnc3[nH]2)cc1", "Activity": 84}, {"smiles": "COc1ccc(-c2nc3cc(-c4csc(C(=O)NCCC(C)C)c4)cnc3[nH]2)cc1", "Activity": 80}]}]}
